Laboratory results: PubChem BioAssay (NCI)
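Exposure lasted 48 hours, with cells grown in 96-well plates and compounds tested at five concentrations. GI50 marks 50% less growth. At the TGI there is no net growth.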

Experiments:
Assay in all cases: NCI-60 cell line screen, 48 h
[1] = system: ACHN renal
[2] = system: SW-620 colon
[3] = system: SK-MEL-2 melanoma
[4] = system: HL-60(TB) leukemia
[5] = system: OVCAR-5 ovarian
[6] = system: K-562 leukemia
[7] = system: 786-0 renal
[8] = system: DU-145 prostate
[9] = system: RXF 393 renal
[10] = system: HT29 colon
[11] = system: A549 NSCLC
[12] = system: NCI/ADR-RES ovarian
[13] = system: HCT-15 colon
[14] = system: SK-MEL-28 melanoma
[15] = system: SN12C renal
[16] = system: EKVX NSCLC
[17] = system: MDA-MB-231 breast
[18] = system: KM12 colon
[19] = system: RPMI-8226 leukemia

Compound | TGI [1] [µM] | TGI [2] [µM] | TGI [3] [µM] | TGI [4] [µM] | TGI [5] [µM] | TGI [6] [µM] | TGI [7] [µM] | TGI [8] [µM] | TGI [9] [µM] | TGI [10] [µM] | TGI [11] [µM] | TGI [12] [µM] | TGI [13] [µM] | TGI [14] [µM] | TGI [15] [µM] | TGI [16] [µM] | TGI [17] [µM] | TGI [18] [µM] | TGI [19] [µM] | GI50 [8] [µM]
COc1ccccc1N1CCN(CCCN2/C(=C(\O)c3ccccc3)C(=O)c3c(C)cc(C)nc3S2(=O)=O)CC1 | > 100 | > 100 | > 100 | > 100 | > 100 | > 100 | > 100 | > 100 | > 100 | > 100 | > 100 | > 100 | > 100 | > 100 | > 100 | > 100 | > 100 | > 100 | – | –
O=c1[nH]c(Nc2nc3ccccc3[nH]2)nc2c1CCC2 | > 100 | > 100 | > 100 | > 100 | > 100 | > 100 | > 100 | > 100 | > 100 | > 100 | > 100 | > 100 | > 100 | > 100 | > 100 | – | 51.1 | – | – | –
O=C(Cc1ccccc1)N/N=C/c1ccccc1O | 61 | > 100 | > 100 | > 100 | > 100 | > 100 | > 100 | > 100 | – | > 100 | > 100 | > 100 | > 100 | > 100 | > 100 | > 100 | > 100 | > 100 | > 100 | –
COc1ccc(C2C3=C(Nc4ncnn42)c2ccccc2OC3c2ccccc2)cc1 (centres undefined) | > 100 | > 100 | 53.9 | 8.92 | > 100 | > 100 | > 100 | > 100 | 48.1 | – | > 100 | > 100 | > 100 | – | > 100 | – | > 100 | 76.5 | – | –
CCOP(=O)(CN1CCNCCNCC1)OCC | > 100 | > 100 | > 100 | > 100 | > 100 | > 100 | > 100 | > 100 | – | > 100 | > 100 | > 100 | > 100 | > 100 | > 100 | > 100 | > 100 | > 100 | > 100 | –
COc1ccc(N2C(=O)C3ON(C(C(N)=O)c4ccccc4)C(c4cc5ccccc5c5ccccc45)C3C2=O)cc1 (centres undefined) | > 50 | > 50 | > 50 | > 50 | > 50 | > 50 | > 50 | > 50 | > 50 | > 50 | > 50 | > 50 | > 50 | > 50 | > 50 | > 50 | > 50 | > 50 | – | –
COC(=O)C1=C(C(=O)OC)c2cc(OC)ccc2C(C(=S)N(C)C)S1 (centres undefined) | > 100 | > 100 | > 100 | – | > 100 | > 100 | > 100 | > 100 | > 100 | – | > 100 | > 100 | > 100 | > 100 | > 100 | > 100 | > 100 | > 100 | > 100 | –
O=C1C(Cl)C(c2cccc(Cl)c2)N1c1ccc(-n2c(=S)[nH]c3ccccc3c2=O)cc1 (centres undefined) | 48.8 | > 100 | – | 52.1 | 57.5 | 45.3 | 54.9 | > 100 | 29 | 43.3 | 81.5 | 70.8 | 14.4 | – | 31.9 | > 100 | 74.3 | > 100 | 55.6 | –
CN(C)/C=N/S(=O)(=O)c1nn2c(C=O)c(-c3ccc(Cl)cc3)nc2s1 | 2.36 | 1.52 | 21.3 | – | 5.55 | 3.04 | 2.5 | 6.02 | 3.37 | 0.552 | 20.2 | 10.6 | 5.63 | 3.33 | 5.94 | 12.7 | 7.77 | 17.6 | 4.22 | –
Cc1ccc(C)c(COCCOCn2ccc(N)nc2=O)c1 | > 100 | > 100 | > 100 | > 100 | > 100 | > 100 | > 100 | > 100 | > 100 | – | > 100 | > 100 | > 100 | > 100 | > 100 | > 100 | > 100 | > 100 | – | –
COC1(OC)CC(CO)(CNc2nc(N)nc(Cl)c2/C=N\O)C1 | > 100 | > 100 | – | > 100 | > 100 | > 100 | > 100 | > 100 | > 100 | > 100 | > 100 | > 100 | > 100 | > 100 | > 100 | > 100 | > 100 | 24.4 | > 100 | –
N#Cc1c(-c2ccccc2)cc(Nc2cccc(C(F)(F)F)c2)n2c1nc1ccccc12 | 11.1 | 14.2 | – | – | 10.7 | – | 6.57 | 19.7 | 11.9 | 4.6 | – | 7.15 | 10.2 | 21.8 | 4.34 | 10 | 9.85 | 30.5 | 6.74 | –
CCCCCCCCCCN(CCCCCCCCCC)C(=O)COc1c2cc(C(C)(C)C)cc1Cc1cc(C(C)(C)C)cc(c1OCC(=O)N(CCCCCCCCCC)CCCCCCCCCC)Cc1cc(C(C)(C)C)cc(c1OCC(=O)N(CCCCCCCCCC)CCCCCCCCCC)Cc1cc(C(C)(C)C)cc(c1OCC(=O)N(CCCCCCCCCC)CCCCCCCCCC)C2 | 28.1 | 14.2 | 20.4 | 30.9 | 26.1 | 4.87 | 23.3 | 31.8 | 22.3 | 12.3 | 30.4 | 29.2 | 21.7 | 24.1 | 26.2 | 25.2 | 33.2 | 24.5 | – | –
C=C1CC[C@H](O)C(C)(C)[C@@H]1CC/C(C)=C/CC/C=C(\C)CC/C=C(\C)CCC=C(C)C | > 100 | > 100 | > 100 | 69 | > 100 | > 100 | > 100 | > 100 | 51.9 | > 100 | > 100 | > 100 | > 100 | > 100 | > 100 | > 100 | > 100 | > 100 | – | –
CNc1nc2n(CCO)c(-c3ccccc3)c(-c3ccccc3)nc-2c(=O)n1 | > 50 | > 50 | > 50 | – | > 50 | > 50 | > 50 | > 50 | > 50 | > 50 | > 50 | > 50 | > 50 | > 50 | > 50 | > 50 | > 50 | > 50 | > 50 | –
CCNc1cc2c(cc1O)CC[C@@H]1[C@@H]2CC[C@]2(C)[C@@H](O)CC[C@@H]12 | 22 | 19 | – | 8.12 | 34.7 | > 41.4 | 25.3 | 20.5 | 20.6 | 33.7 | 54.6 | 20.9 | 15 | 24.5 | 29.1 | 34.8 | 24.9 | 22.4 | 63.5 | 3.84
CC(=O)OC1(C)C=CC(=O)C=C1 | 34.7 | > 100 | 98.4 | > 100 | > 100 | > 100 | 47.9 | > 100 | – | > 100 | > 100 | 26.3 | > 100 | 69.6 | > 100 | > 100 | 49.1 | > 100 | > 100 | –
COc1cc(OC)c2c(=O)c(OC)c(-c3ccc4c(c3)OCO4)oc2c1 | > 100 | > 100 | 42.5 | > 100 | > 100 | > 100 | 79.3 | > 100 | 72.6 | > 100 | > 100 | > 100 | > 100 | > 100 | > 100 | > 100 | > 100 | > 100 | – | –
C/C=C(/C)C(=O)O[C@H]1C[C@@H]2[C@@H](O)c3occ(C)c3C[C@]2(C)[C@@H](C)C1 | 31 | 32.6 | – | 28.9 | 34.8 | 28.5 | 29.7 | 28.2 | 28.9 | 31.1 | – | 28.3 | 44.3 | 29.9 | 27.3 | 30.5 | 29.2 | 30.2 | 76.5 | –
N#C/C(N)=C(\C#N)N=CN | > 100 | > 100 | > 100 | > 100 | > 100 | > 100 | > 100 | > 100 | – | > 100 | > 100 | > 100 | > 100 | > 100 | > 100 | > 100 | > 100 | > 100 | > 100 | –
